# Assay results from US8486962B2, “Antifungal agents” (F2G Ltd., priority 2005, dated 2013).
# Key:
# Assay type in all cases: cell-based
# [1] = system: Aspergillus fumigatus AF293; assay: MIC, YAG medium, Aspergillus fumigatus AF293; conditions: YAG medium; for MIC: Aspergillus fumigatus, AF293, read-out: MIC A Fum. 293
# Experimental: (§1) Measurement of Minimum Inhibitory Concentrations (MICs)
# (§2) Between 1 and 5 mgs of compound were accurately weighed out into a sterile Eppendorf tube. The compound was dissolved in DMSO to give a solution containing 5 mg/ml. Tubes were stored at −20° C. until required.
# (§3) On the day of testing thawed solutions were vortex mixed to ensure homogeneity. 30 μl of solution was removed and added to 570 μl of sterile water in a separate sterile Eppendorf. The thoroughly mixed solution was used to prepare a series of doubling dilutions in water, in a deep well plate. Eleven replicate plates were prepared using a Minitrak by aspirating 20 μl from each well into eleven clear polystyrene 96 well plates.
# (§4) Spores of Aspergillus spp (Aspergillus fumigatus, Aspergillus terreus, Aspergillus niger and Aspergillus flavus) were harvested from cultures grown on Sabarauds agar for 5 days, and resuspended in PBS/Tween 80 to approx 1×10^7 cfu/ml Other filamentous fungi (Fusarium solani, Scedosporium spp., Trichophyton spp., Absidia corymbifera), were grown on Sabarauds agar for 2-10 days and spores/hyphae resuspended in PBS/Tween to give approx 1×10^7 cfU/ml. Candida species (Candida albicans, Candida glabrata, Candida krusei, Candida parapsilosis and Candida tropicalis) were grown on Sabarauds agar, cells were harvested from the agar using a sterile loop and resuspended in PBS/Tween 80 to approx 1×10^6 cfu/ml. Each organism suspension was diluted in RPMI medium, containing 2% glucose and 0.135M MOPS buffer (pH7.0) to 2×10^4 cfu/ml for Aspergillus spp and other filamentous fungi and 2×10^3 cfu/ml for yeast. 80 μl of an organism suspension was added to each well of the plate containing drug dilutions.
# (§5) This produced MIC plates with a drug range 50-0.05 mg/L and organism inocula of 1-2×10^4 cfu/ml for Aspergillus spp and other filamentous fungi and 1-2×10^3 cfu/ml for yeasts. All plates were incubated for 24-48 hrs at 35° C. Growth was assessed by monitoring the optical density at 485 nm for each well. The MIC of a compound is the lowest drug concentration that inhibits growth of an organism by >80% compared with a drug free control. MICs are recorded as mg/L. Other growth media can be used for susceptibility testing, and the activity of the described compounds can also be assessed in a medium comprising, 1% glucose, 1% ammonium chloride and 0.5% yeast extract (YAG medium). To perform MIC tests in this medium, dilutions of compounds are prepared in microtitre plates as described above. Fungal strains to be tested are grown and harvested in an identical manner to that described above, each organism suspension is then diluted in YAG medium to 2×10^4 cfu/ml for Aspergillus spp and other filamentous fungi and 2×10^3 cfu/ml for yeast. 80 μl of an organism suspension was added to each well of the plate containing drug dilutions. This produced MIC plates with a drug range 50-0.05 mg/L and organism inocula of 1-2×10^4 cfu/ml for Aspergillus spp and other filamentous fungi and 1-2×10^3 cfu/ml for yeasts. All plates were incubated for 24 hrs at 35° C. Growth was assessed by monitoring the optical density at 485 nm for each well. The MIC of a compound is the lowest drug concentration that inhibits growth of an organism by >70% compared with a drug free control. MICs are recorded as mg/L. In cases where the MIC of an organism is […]0.05 mg/L the MIC is repeated using a concentration range of 0.5-0.0005 mg/L. MIC tests in YAG medium have more clear-cut endpoints and have slightly lower MICS than those performed in RPMI medium.
# (§6) The following organisms were tested: Aspergillus fumigatus AF293 and Aspergillus fumigatus AF210, Aspergillus niger, Aspergillus terreus, Aspergillus favus, Candida albicans, Candida krusei, Candida tropicalis, Candida glabrata, Candida parapsilosis, Trichophyton rubrum, Trichophyton mentagrophytes, Scedosporium prolificans, Scedosporium apiospermum, Absidia corymbifera, Fusarium solani.
# Aspergillus terreus = assay: MIC, YAG medium, Aspergillus terreus; conditions: YAG medium; for MIC: Aspergillus terreus, read-out: MIC A Terreus 4
# Experimental: as §1, §2, §3, §4, §5, §6
# Aspergillus niger = assay: MIC, YAG medium, Aspergillus niger; conditions: YAG medium; for MIC: Aspergillus niger, read-out: MIC A Niger 1
# Experimental: as §1, §2, §3, §4, §5, §6
# [2] = system: Aspergillus fumigatus AF210; assay: MIC, YAG medium, Aspergillus fumigatus AF210; conditions: YAG medium; for MIC: Aspergillus fumigatus, AF210, read-out: MIC A Fum. 210
# Experimental: as §1, §2, §3, §4, §5, §6
# Aspergillus flavus = assay: MIC, YAG medium, Aspergillus flavus; conditions: YAG medium; for MIC: Aspergillus flavus, read-out: MIC A Flavus 01
# Experimental: as §1, §2, §3, §4, §5, §6
SMILES,MIC [1],MIC (Aspergillus terreus),MIC (Aspergillus niger),MIC [2],MIC (Aspergillus flavus),MIC A Fum. 293 [1],MIC A Terreus 4 (Aspergillus terreus),MIC A Niger 1 (Aspergillus niger),MIC A Fum. 210 [2],MIC A Flavus 01 (Aspergillus flavus)
"CN(C(=O)C(=O)c1c(-c2cccnc2)cc2ccccn12)c1ccccc1 [Example 187, N-Methyl-2-oxo-N-phenyl-2-(2-pyridin-3-yl-indolizin-3-yl)-acetamide]",> 50 µg/mL,> 50 µg/mL,3.1 µg/mL,> 50 µg/mL,> 50 µg/mL,–,–,–,–,–
"COc1ccc(NC(=O)C(=O)c2c(-c3ccco3)cc3ccccn23)c(OC)c1 [Example 169, N-(2,4-Dimethoxy-phenyl)-2-(2-furan-2-yl-indolizin-3-yl)-2-oxo-acetamide]",3.1 µg/mL,3.1 µg/mL,0.4 µg/mL,6.25 µg/mL,0.4 µg/mL,–,–,–,–,–
"COc1ccc(NC(=O)C(=O)c2c(-c3ccco3)cc3ccccn23)cn1 [Example 170, 2-(2-Furan-2-yl-indolizin-3-yl)-N-(6-methoxy-pyridin-3-yl)-2-oxo-acetamide]",> 50 µg/mL,> 50 µg/mL,3.1 µg/mL,> 50 µg/mL,3.1 µg/mL,–,–,–,–,–
"COc1ccc(NC(=O)C(=O)c2c(-c3ccccc3)cc3c(C)cccn23)cn1 [Example 194, N-(6-Methoxoy-pyridin-3-yl)-2-(8-methyl-2-phenyl-indolizin-3-yl)-2-oxo-acetamide]",–,–,–,–,–,>50 µg/mL,25 µg/mL,>50 µg/mL,>50 µg/mL,>50 µg/mL
"O=C(C(=O)N1CCc2ccccc21)c1c(-c2ccccc2)cc2ccccn12 [Example 218, 1-(2,3-Dihydro-indol-1-yl)-2-(2-phenyl-indolizin-3-yl)-ethane-1,2-dione]",> 50 µg/mL,> 50 µg/mL,0.4 µg/mL,> 50 µg/mL,> 50 µg/mL,–,–,–,–,–
"O=C(Nc1ccccc1F)C(=O)c1c(-c2cccnc2)cc2ccccn12 [Example 211, N-(2-Fluoro-phenyl)-2-oxo-2-(2-pyridin-3-yl-indolizin-3-yl)-acetamide]",6.25 µg/mL,0.2 µg/mL,1.6 µg/mL,6.25 µg/mL,0.4 µg/mL,–,–,–,–,–

# Second part, the compound after the results:
MIC [1],MIC (Aspergillus terreus),MIC (Aspergillus niger),MIC [2],MIC (Aspergillus flavus),MIC A Fum. 293 [1],MIC A Terreus 4 (Aspergillus terreus),MIC A Niger 1 (Aspergillus niger),MIC A Fum. 210 [2],MIC A Flavus 01 (Aspergillus flavus),SMILES
1.6 µg/mL,0.4 µg/mL,0.8 µg/mL,1.6 µg/mL,0.4 µg/mL,–,–,–,–,–,"COc1ccc(NC(=O)C(=O)c2c(-c3ccccc3)cc3ccc(C)cn23)cn1 [Example 192, N-(6-Methoxy-pyridin-3-yl)-2-(6-methyl-2-phenyl-indolizin-3-yl)-2-oxo-acetamide]"
0.8 µg/mL,0.1 µg/mL,0.4 µg/mL,0.8 µg/mL,0.05 µg/mL,–,–,–,–,–,"COc1ccc2cc(-c3ccccc3)c(C(=O)C(=O)Nc3ccc(N(C)C)cc3)n2c1 [Example 242, N-(4-Dimethylamino-phenyl)-2-(6-methoxy-2-phenyl-indolizin-3-yl)-2-oxo-acetamide]"
> 50 µg/mL,1.6 µg/mL,> 50 µg/mL,> 50 µg/mL,> 50 µg/mL,–,–,–,–,–,"COc1ccc(NC(=O)C(=O)c2c(-c3ccccc3)cc3c(C)cccn23)cc1 [Example 234, N-(4-Methoxy-phenyl)-2-(8-methyl-2-phenyl-indolizin-3-yl)-2-oxo-acetamide]"
> 50 µg/mL,0.05 µg/mL,0.05 µg/mL,> 50 µg/mL,0.1 µg/mL,–,–,–,–,–,"O=C(Nc1ccc(F)cc1)C(=O)c1c(-c2ccc(F)cc2)cc2ccccn12 [Example 209, N-(4-Fluoro-phenyl)-2-[2-(4-fluoro-phenyl)-indolizin-3-yl]-2-oxo-acetamide]"
